From patent US9340590B2 (priority 2011, dated 2016)
Like-named read-outs stand apart in the source and are kept apart here. Positions of bridges follow the written chain, without caps; N, C: chain ends. Non-standard residues stand in square brackets, D forms with d. Residues, ends and D or L forms follow the SMILES beside them. 1Nal = N[C@@H](Cc1cccc2ccccc12)C(=O)O

How the values were obtained:
Test in all cases: cell-based
hNav1.7 = hNav1.7 (Homo sapiens, UniProt Q15858); type: cell-based
hNav1.3 = hNav1.3 (Homo sapiens, UniProt Q9NY46); conditions: IonWorks Quattro, read-out: IWQ Use Nav1.3
hNav1.5 = hNav1.5 (Homo sapiens, UniProt Q14524); conditions: IonWorks Quattro, read-out: IWQ Use Nav1.5
[1] = Table 25, IonWorks Quattro, use, […], read-out: IWQ Use Nav1.7

Sequence of hNav1.7 (Q15858 whole entry, looked up): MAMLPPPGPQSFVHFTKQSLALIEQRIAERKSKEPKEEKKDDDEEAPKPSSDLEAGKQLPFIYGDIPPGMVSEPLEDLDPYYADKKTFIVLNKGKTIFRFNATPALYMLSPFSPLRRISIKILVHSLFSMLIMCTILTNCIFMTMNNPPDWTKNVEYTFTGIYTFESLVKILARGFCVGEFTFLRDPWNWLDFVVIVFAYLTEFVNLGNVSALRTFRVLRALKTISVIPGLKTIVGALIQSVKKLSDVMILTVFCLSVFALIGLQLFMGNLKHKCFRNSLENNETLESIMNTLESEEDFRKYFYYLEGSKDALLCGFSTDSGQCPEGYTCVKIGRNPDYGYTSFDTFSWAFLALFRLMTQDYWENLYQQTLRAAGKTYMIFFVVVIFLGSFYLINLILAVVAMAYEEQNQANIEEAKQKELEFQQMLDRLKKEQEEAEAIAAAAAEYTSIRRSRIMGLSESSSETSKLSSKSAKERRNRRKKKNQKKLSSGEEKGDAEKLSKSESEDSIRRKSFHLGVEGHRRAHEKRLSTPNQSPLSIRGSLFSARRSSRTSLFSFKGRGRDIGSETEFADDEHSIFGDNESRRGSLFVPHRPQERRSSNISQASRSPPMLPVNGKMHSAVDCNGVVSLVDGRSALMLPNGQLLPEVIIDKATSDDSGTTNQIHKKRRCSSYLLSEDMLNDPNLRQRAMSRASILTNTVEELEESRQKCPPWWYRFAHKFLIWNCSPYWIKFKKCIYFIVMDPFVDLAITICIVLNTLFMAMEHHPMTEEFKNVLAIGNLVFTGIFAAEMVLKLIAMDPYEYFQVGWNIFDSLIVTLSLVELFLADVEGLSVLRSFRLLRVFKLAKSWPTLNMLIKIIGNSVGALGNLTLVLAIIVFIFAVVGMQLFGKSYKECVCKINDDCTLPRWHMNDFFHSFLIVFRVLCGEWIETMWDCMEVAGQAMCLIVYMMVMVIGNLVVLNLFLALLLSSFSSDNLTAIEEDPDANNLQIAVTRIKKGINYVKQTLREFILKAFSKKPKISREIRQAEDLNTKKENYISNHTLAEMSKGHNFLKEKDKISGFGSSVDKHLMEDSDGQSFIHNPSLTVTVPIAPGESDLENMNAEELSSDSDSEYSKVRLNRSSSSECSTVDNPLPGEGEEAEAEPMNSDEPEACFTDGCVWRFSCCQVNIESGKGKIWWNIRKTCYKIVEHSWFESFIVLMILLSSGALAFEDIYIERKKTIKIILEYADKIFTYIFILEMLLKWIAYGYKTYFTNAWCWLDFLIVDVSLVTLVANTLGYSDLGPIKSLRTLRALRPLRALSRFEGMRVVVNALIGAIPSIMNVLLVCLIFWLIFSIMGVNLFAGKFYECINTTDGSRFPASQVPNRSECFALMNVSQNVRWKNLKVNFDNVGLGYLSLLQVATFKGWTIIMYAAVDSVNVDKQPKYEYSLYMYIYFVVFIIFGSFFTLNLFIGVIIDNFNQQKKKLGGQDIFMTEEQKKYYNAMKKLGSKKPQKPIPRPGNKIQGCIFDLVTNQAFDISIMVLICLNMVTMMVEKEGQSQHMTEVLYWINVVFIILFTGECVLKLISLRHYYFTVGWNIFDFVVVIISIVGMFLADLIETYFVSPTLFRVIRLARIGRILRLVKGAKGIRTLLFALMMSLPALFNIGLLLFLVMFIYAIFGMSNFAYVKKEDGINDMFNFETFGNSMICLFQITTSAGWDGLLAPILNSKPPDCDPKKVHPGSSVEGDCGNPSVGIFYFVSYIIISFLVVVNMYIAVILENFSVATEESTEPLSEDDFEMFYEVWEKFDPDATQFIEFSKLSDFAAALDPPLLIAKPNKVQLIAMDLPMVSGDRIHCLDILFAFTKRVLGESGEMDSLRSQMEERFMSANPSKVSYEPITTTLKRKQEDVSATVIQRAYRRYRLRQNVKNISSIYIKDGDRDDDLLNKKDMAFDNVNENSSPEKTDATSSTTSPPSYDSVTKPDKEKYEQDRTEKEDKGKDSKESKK
Sequence of hNav1.5 (Q14524 whole entry, looked up): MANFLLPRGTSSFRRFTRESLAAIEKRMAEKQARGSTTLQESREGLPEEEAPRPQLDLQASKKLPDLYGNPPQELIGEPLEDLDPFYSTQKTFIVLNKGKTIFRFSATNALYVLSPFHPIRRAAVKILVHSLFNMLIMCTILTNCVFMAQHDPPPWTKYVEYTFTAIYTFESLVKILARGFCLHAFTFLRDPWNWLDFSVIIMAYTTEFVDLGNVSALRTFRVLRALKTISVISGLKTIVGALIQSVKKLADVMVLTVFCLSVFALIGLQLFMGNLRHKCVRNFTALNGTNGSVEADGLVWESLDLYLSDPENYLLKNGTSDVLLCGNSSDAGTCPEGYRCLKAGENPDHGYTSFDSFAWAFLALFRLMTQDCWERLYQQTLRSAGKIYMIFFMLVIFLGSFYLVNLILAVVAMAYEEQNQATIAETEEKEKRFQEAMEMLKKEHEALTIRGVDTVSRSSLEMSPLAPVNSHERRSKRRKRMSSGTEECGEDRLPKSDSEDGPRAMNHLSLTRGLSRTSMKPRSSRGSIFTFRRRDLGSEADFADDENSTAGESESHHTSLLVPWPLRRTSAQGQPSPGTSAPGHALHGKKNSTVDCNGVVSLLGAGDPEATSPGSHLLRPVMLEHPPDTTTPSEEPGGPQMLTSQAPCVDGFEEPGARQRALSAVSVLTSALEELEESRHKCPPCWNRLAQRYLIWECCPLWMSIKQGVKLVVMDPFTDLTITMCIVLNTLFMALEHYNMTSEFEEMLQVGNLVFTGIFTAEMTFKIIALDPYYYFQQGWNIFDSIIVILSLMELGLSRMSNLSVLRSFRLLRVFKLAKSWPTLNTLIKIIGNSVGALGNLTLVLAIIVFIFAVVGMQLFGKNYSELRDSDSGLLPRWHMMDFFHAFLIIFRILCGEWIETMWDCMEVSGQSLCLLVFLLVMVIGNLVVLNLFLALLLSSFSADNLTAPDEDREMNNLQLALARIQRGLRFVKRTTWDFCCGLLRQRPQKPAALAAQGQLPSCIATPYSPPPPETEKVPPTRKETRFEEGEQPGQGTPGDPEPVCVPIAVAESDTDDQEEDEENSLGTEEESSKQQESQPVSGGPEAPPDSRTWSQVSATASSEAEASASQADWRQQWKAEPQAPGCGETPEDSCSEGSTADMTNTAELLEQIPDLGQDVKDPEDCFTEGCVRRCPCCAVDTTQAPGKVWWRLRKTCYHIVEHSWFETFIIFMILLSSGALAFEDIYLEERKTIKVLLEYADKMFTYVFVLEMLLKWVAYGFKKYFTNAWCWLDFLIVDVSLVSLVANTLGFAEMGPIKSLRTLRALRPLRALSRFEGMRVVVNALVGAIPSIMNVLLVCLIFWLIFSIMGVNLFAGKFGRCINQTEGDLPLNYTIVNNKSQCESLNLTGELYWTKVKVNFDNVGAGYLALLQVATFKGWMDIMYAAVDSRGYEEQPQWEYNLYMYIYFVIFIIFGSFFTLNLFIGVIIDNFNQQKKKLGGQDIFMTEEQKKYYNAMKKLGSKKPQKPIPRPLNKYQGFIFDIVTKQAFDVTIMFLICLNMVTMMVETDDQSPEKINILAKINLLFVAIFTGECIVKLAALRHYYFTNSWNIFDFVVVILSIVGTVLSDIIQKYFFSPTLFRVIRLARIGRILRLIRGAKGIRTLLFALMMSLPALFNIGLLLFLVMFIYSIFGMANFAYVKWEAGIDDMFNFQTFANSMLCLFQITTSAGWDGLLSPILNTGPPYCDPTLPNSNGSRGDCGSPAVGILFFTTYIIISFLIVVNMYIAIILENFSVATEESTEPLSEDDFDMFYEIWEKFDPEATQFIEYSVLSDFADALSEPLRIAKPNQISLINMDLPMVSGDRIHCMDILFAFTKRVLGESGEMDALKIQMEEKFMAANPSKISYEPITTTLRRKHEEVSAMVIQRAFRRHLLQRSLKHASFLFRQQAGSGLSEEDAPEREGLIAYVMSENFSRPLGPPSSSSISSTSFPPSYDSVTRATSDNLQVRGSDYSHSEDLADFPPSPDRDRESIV

How did the IC50 (hNav1.7) turn out when `CC[C@H](C)[C@@H]1NC(=O)[C@@H]2CSSC[C@@H]3NC(=O)[C@H](C(C)C)NC(=O)[C@H](CC(C)C)NC(=O)[C@H](CC(N)=O)NC(=O)[C@@H]4CCCN4C(=O)[C@H](CCCNC(=N)N)NC(=O)[C@H](CSSC[C@H](NC(=O)[C@@H](N)CC(=O)O)C(=O)N[C@@H](CC(C)C)C(=O)NCC(=O)N[C@@H](Cc4ccccc4)C(=O)N[C@@H](CCSC)C(=O)N[C@@H](CCCNC(=N)N)C(=O)N[C@@H](CCCCN)C(=O)N2)NC(=O)[C@H](CSSC[C@@H](C(=O)N[C@@H](CCCCN)C(=O)N[C@@H](Cc2ccc(O)cc2)C(=O)N[C@H](C(=O)N[C@@H](Cc2ccccc2)C(N)=O)C(C)C)NC(=O)[C@H](Cc2c[nH]c4ccccc24)NC(=O)[C@H](CCCCN)NC(=O)[C@H](CCCNC(=N)N)NC(=O)[C@H]([C@@H](C)O)NC(=O)[C@H](CCCNC(=N)N)NC(=O)[C@H](CO)NC3=O)NC(=O)[C@H](CCCCN)NC(=O)[C@H](CC(=O)O)NC(=O)[C@H](CC(N)=O)NC(=O)[C@H](CC(=O)O)NC(=O)[C@@H]2CCCN2C1=O` [compound 71] (H-DCLGFMRKCIPDNDKCCRPNLVCSRTRKWCKYVF-NH2; disulfide 2-17, 9-23, 16-30) was run?
Its IC50 is 0.51 µM.

What about the IC50 (hNav1.3; Table 23, use, […]) of the same compound?
Its IC50 is 0.51 µM.

What about the IC50 (hNav1.5; Table 23, use, […]) of the same compound?
The IC50 was 5.22 µM.

For `CC[C@H](C)[C@@H]1NC(=O)[C@@H]2CSSC[C@@H]3NC(=O)[C@H](C(C)C)NC(=O)[C@H](CC(C)C)NC(=O)[C@H](CC(N)=O)NC(=O)[C@@H]4CCCN4C(=O)[C@H](CCCNC(=N)N)NC(=O)[C@H](CSSC[C@H](NC(=O)[C@@H](N)CC(=O)O)C(=O)N[C@@H](CC(C)C)C(=O)NCC(=O)N[C@@H](Cc4ccccc4)C(=O)N[C@@H](CCSC)C(=O)N[C@@H](CCCNC(=N)N)C(=O)N[C@@H](CCCCN)C(=O)N2)NC(=O)[C@H](CSSC[C@@H](C(=O)N[C@@H](CCCNC(=N)N)C(=O)N[C@@H](Cc2ccc(O)cc2)C(=O)N[C@H](C(=O)N[C@@H](Cc2ccccc2)C(N)=O)C(C)C)NC(=O)[C@H](Cc2c[nH]c4ccccc24)NC(=O)[C@H](CCCCN)NC(=O)[C@H](Cc2cnc[nH]2)NC(=O)[C@H]([C@@H](C)O)NC(=O)[C@H](CCCNC(=N)N)NC(=O)[C@H](CO)NC3=O)NC(=O)[C@H](CCCCN)NC(=O)[C@H](CC(=O)O)NC(=O)[C@H](CC(N)=O)NC(=O)[C@H](CC(=O)O)NC(=O)[C@@H]2CCCN2C1=O` [compound 73] (H-DCLGFMRKCIPDNDKCCRPNLVCSRTHKWCRYVF-NH2; disulfide 2-17, 9-23, 16-30), which IC50 (hNav1.7; [1]) is on record?
The IC50 was 1.36 µM.

And the IC50 (hNav1.3; Table 25, use, […])?
Its IC50 is 4.95 µM.

What about the IC50 (hNav1.5; Table 25, use, […]) of the same compound?
The IC50 was 9.17 µM.

What does the source list for `CC[C@H](C)[C@@H]1NC(=O)[C@@H]2CSSC[C@@H]3NC(=O)[C@H](C(C)C)NC(=O)[C@H](CC(C)C)NC(=O)[C@H](CC(N)=O)NC(=O)[C@@H]4CCCN4C(=O)[C@H](CCCNC(=N)N)NC(=O)[C@H](CSSC[C@H](NC(=O)[C@@H](N)CC(=O)O)C(=O)N[C@@H](CC(C)C)C(=O)NCC(=O)N[C@@H](Cc4ccccc4)C(=O)N[C@@H](CCSC)C(=O)N[C@@H](CCCNC(=N)N)C(=O)N[C@@H](CCCCN)C(=O)N2)NC(=O)[C@H](CSSC[C@@H](C(=O)N[C@@H](CCCCN)C(=O)N[C@@H](Cc2ccc(O)cc2)C(=O)N[C@H](C(=O)N[C@@H](CCCNC(=N)N)C(N)=O)C(C)C)NC(=O)[C@H](Cc2c[nH]c4ccccc24)NC(=O)[C@H](CCCCN)NC(=O)[C@H](Cc2cnc[nH]2)NC(=O)[C@H]([C@@H](C)O)NC(=O)[C@H](CCCNC(=N)N)NC(=O)[C@H](CO)NC3=O)NC(=O)[C@H](CCCCN)NC(=O)[C@H](CC(=O)O)NC(=O)[C@H](CC(N)=O)NC(=O)[C@H](CC(=O)O)NC(=O)[C@@H]2CCCN2C1=O` [compound 75] (H-DCLGFMRKCIPDNDKCCRPNLVCSRTHKWCKYVR-NH2; disulfide 2-17, 9-23, 16-30)?
IC50 (hNav1.7): 3.58 µM; IC50 (hNav1.3; use-dependent, […]): 4.69 µM; IC50 (hNav1.5; use-dependent, […]): 8.99 µM

`CC[C@H](C)[C@@H]1NC(=O)[C@@H]2CSSC[C@@H]3NC(=O)[C@H](C(C)C)NC(=O)[C@H](CC(C)C)NC(=O)[C@H](CC(N)=O)NC(=O)[C@@H]4CCCN4C(=O)[C@H](CCCNC(=N)N)NC(=O)[C@H](CSSC[C@H](NC(=O)[C@@H](N)CC(=O)O)C(=O)N[C@@H](CC(C)C)C(=O)NCC(=O)N[C@@H](Cc4ccccc4)C(=O)N[C@@H](CCSC)C(=O)N[C@@H](CCCNC(=N)N)C(=O)N[C@@H](CCCCN)C(=O)N2)NC(=O)[C@H](CSSC[C@@H](C(=O)N[C@@H](CCCCN)C(=O)N[C@@H](Cc2ccc(O)cc2)C(=O)N[C@H](C(=O)N[C@@H](Cc2ccccc2)C(=O)N[C@@H](CCCNC(=N)N)C(N)=O)C(C)C)NC(=O)[C@H](Cc2c[nH]c4ccccc24)NC(=O)[C@H](CCCCN)NC(=O)[C@H](Cc2cnc[nH]2)NC(=O)[C@H]([C@@H](C)O)NC(=O)[C@H](CCCNC(=N)N)NC(=O)[C@H](CO)NC3=O)NC(=O)[C@H](CCCCN)NC(=O)[C@H](CC(=O)O)NC(=O)[C@H](CC(N)=O)NC(=O)[C@H](CC(=O)O)NC(=O)[C@@H]2CCCN2C1=O` [compound 76] was tested. Which IC50 (hNav1.7; IonWorks Quattro, use-dependent, […], read-out: IWQ Use Nav1.7 (μm)) did it give?
The IC50 was 0.3 µM.

And the IC50 (hNav1.3; use-dependent, […])?
Its IC50 is 0.1 µM.

What about the IC50 (hNav1.5; use-dependent, […]) of the same compound?
Its IC50 is 9.73 µM.

Which IC50 (hNav1.7; IonWorks Quattro, use-dependent, […], read-out: IWQ Use Nav1.7) does the source give for `CC[C@H](C)[C@@H]1NC(=O)[C@@H]2CSSC[C@@H]3NC(=O)[C@H](C(C)C)NC(=O)[C@H](CC(C)C)NC(=O)[C@H](CC(N)=O)NC(=O)[C@@H]4CCCN4C(=O)[C@H](CCCNC(=N)N)NC(=O)[C@H](CSSC[C@H](NC(=O)[C@@H](N)CC(=O)O)C(=O)N[C@@H](CC(C)C)C(=O)NCC(=O)N[C@@H](Cc4ccccc4)C(=O)N[C@@H](CCSC)C(=O)N[C@@H](CCCNC(=N)N)C(=O)N[C@@H](CCCCN)C(=O)N2)NC(=O)[C@H](CSSC[C@@H](C(=O)N[C@@H](CCCCN)C(=O)N[C@@H](Cc2ccc(O)cc2)C(=O)N[C@H](C(=O)N[C@@H](Cc2cccc4ccccc24)C(N)=O)C(C)C)NC(=O)[C@H](Cc2c[nH]c4ccccc24)NC(=O)[C@H](CCCCN)NC(=O)[C@H](Cc2cnc[nH]2)NC(=O)[C@H]([C@@H](C)O)NC(=O)[C@H](CCCNC(=N)N)NC(=O)[C@H](CO)NC3=O)NC(=O)[C@H](CCCCN)NC(=O)[C@H](CC(=O)O)NC(=O)[C@H](CC(N)=O)NC(=O)[C@H](CC(=O)O)NC(=O)[C@@H]2CCCN2C1=O` [compound 80] (H-DCLGFMRKCIPDNDKCCRPNLVCSRTHKWCKYV[1Nal]-NH2; disulfide 2-17, 9-23, 16-30) here?
The IC50 was 0.02 µM.

What about the IC50 (hNav1.3; use-dependent, […]) of the same compound?
Its IC50 is 0.03 µM.

And the IC50 (hNav1.5; use-dependent, […])?
Its IC50 is 10.2 µM.

With `CSCC[C@@H]1NC(=O)[C@H](Cc2ccccc2)NC(=O)CNC(=O)[C@H](CC(C)C)NC(=O)[C@@H](NC(=O)[C@@H](N)CC(=O)O)CSSC[C@@H]2NC(=O)[C@@H]3CSSC[C@@H](C(=O)N[C@@H](CCCCN)C(=O)N[C@@H](Cc4ccc(O)cc4)C(=O)N[C@H](C(=O)N[C@@H](Cc4ccccc4)C(N)=O)C(C)C)NC(=O)[C@H](Cc4c[nH]c5ccccc45)NC(=O)[C@H](CCCCN)NC(=O)[C@H](Cc4c[nH]cn4)NC(=O)[C@H]([C@@H](C)O)NC(=O)[C@H](CCCNC(=N)N)NC(=O)[C@H](CO)NC(=O)[C@H](CSSC[C@H](NC(=O)[C@H](CCCCN)NC(=O)[C@H](CCCNC(=N)N)NC1=O)C(=O)N[C@@H](Cc1c[nH]c4ccccc14)C(=O)N1CCC[C@H]1C(=O)N[C@@H](CC(=O)O)C(=O)N[C@@H](CC(N)=O)C(=O)N[C@@H](CC(=O)O)C(=O)N[C@@H](CCCCN)C(=O)N3)NC(=O)[C@H](C(C)C)NC(=O)[C@H](CC(C)C)NC(=O)[C@H](CC(N)=O)NC(=O)[C@@H]1CCCN1C(=O)[C@H](CCCNC(=N)N)NC2=O` [compound 83] (H-DCLGFMRKCWPDNDKCCRPNLVCSRTHKWCKYVF-NH2; disulfide 2-17, 9-23, 16-30) as the compound, how does the IC50 (hNav1.7; IonWorks Quattro, Use, read-out: IWQ Use Nav1.7) read?
The IC50 was 0.1 µM.

And the IC50 (hNav1.3; Use)?
Its IC50 is 0.19 µM.

What about the IC50 (hNav1.5; Use) of the same compound?
The IC50 was 8.02 µM.

`CC[C@H](C)[C@@H]1NC(=O)[C@@H]2CSSC[C@@H]3NC(=O)[C@H](C(C)C)NC(=O)[C@H](CC(C)C)NC(=O)[C@H](CC(N)=O)NC(=O)[C@@H]4CCCN4C(=O)[C@H](CCCNC(=N)N)NC(=O)[C@H](CSSC[C@H](NC(=O)[C@@H](N)CC(=O)O)C(=O)N[C@@H](CC(C)C)C(=O)NCC(=O)N[C@@H](Cc4ccccc4)C(=O)N[C@@H](CCSC)C(=O)N[C@@H](CCCNC(=N)N)C(=O)N[C@@H](CCCCN)C(=O)N2)NC(=O)[C@H](CSSC[C@@H](C(=O)N[C@@H](CCCCN)C(=O)N[C@@H](Cc2c[nH]c4ccccc24)C(=O)N[C@H](C(=O)N[C@@H](Cc2ccccc2)C(N)=O)C(C)C)NC(=O)[C@H](Cc2c[nH]c4ccccc24)NC(=O)[C@H](CCCCN)NC(=O)[C@H](Cc2c[nH]cn2)NC(=O)[C@H]([C@@H](C)O)NC(=O)[C@H](CCCNC(=N)N)NC(=O)[C@H](CO)NC3=O)NC(=O)[C@H](CCCCN)NC(=O)[C@H](CC(=O)O)NC(=O)[C@H](CC(N)=O)NC(=O)[C@H](CC(=O)O)NC(=O)[C@@H]2CCCN2C1=O` [compound 85] (H-DCLGFMRKCIPDNDKCCRPNLVCSRTHKWCKWVF-NH2; disulfide 2-17, 9-23, 16-30) was tested. Which IC50 (hNav1.7; [1]) did it give?
The IC50 was 0.09 µM.

And the IC50 (hNav1.3; Table 25, use, […])?
The IC50 was 0.16 µM.

What about the IC50 (hNav1.5; Table 25, use, […]) of the same compound?
The IC50 was 6.74 µM.
